# Measurements published in article PMC6015222, “Targeting Phosphopeptide Recognition by the Human BRCA1 Tandem BRCT Domain to Interrupt BRCA1-Dependent Signaling” (Cell Chemical Biology, 2018).
# Assays:
# HEK293 cells = test: Cell cycle profiles by flow cytometry after 4 Gy (damage-induced G2 arrest); type: cell-based, human; conditions: 10–100 μM Bractoppin or 100 μM CCBT2047 added 0.5 hr before radiation
# Description: HEK293 cells stably harboring plasmids for Tet-inducible expression of tBRCT domains were seeded on 12-well plates at 1.8 X10^5 cells/well. Cells were thymidine blocked and synchronously released into the cell cycle following irradiation at 4Gy, without or with exposure to compounds (at final concentrations with 0.5% DMSO) in serum-containing media for 16 h. Cells were re-suspended in 1x PBS, fixed with 80% ethanol, and permeabilized in buffer containing 0.1% Tween-20 in PBS (PBST), for 20’ at RT. DAPI staining was used to quantify nuclear DNA content. Analysis was performed using a Beckman Coulter Gallios analyzer, and quantified using the Dean-Jet algorithm in FlowJo software.
# ECT2 BRCT = target: T1, ECT2 BRCT (Homo sapiens, UniProt Q9H8V3); test: Competitive MST selectivity: ECT2; type: binding
# T1 construct: ECT2 BRCT residues 22-326; 6x His (N); made in house; host or cells: E. coli C41(DE3)
# T1 sequence (Q9H8V3 22-326 isoform Q9H8V3-4): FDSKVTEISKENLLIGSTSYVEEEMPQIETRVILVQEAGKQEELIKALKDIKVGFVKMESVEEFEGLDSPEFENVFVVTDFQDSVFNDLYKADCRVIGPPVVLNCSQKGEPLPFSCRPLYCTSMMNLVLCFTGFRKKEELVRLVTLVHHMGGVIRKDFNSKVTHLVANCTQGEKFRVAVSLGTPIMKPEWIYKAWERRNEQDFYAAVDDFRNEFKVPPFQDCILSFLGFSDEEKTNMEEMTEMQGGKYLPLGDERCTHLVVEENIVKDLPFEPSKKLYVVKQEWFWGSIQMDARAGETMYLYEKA
# Description: Protein domains used in the assay were labeled with NT-647-NHS fluorescent dye using the Monolith NT™ Protein Labeling Kit (NanoTemper Technologies). Assays were carried out in 20mM Tris buffer, pH 7.4, with 200mM NaCl, 0.05% Tween-20 and 2mM DTT. For the direct binding assay, 10μl of labeled protein at a final concentration of 20nM was mixed with 10μl of test compound and incubated on ice for 10 min. For the competitive assay, 10μl of labeled protein at a final concentration of 20nM was mixed with 2μM cognate peptide substrate at the EC80 concentration determined by prior titration using a 16-point serial dilution by direct-binding MST. For both assays, samples prepared as above were centrifuged at 15000 rpm at 4°C for 10 min and 4μl of the supernatant was loaded into premium glass capillaries (NanoTemper Technologies). MST analysis was performed at MST power of 40% and LED power of 80%, at 22°C temperature using a Monolith NT.115 (NanoTemper Technologies). An initial “Capillary Scan” was performed to scan for fluorescence across the length of the capillary tray to determine the exact position of each capillary before the MST measurement was started. Test compounds were assayed at 16 different concentrations by serial dilution, and data were analysed using NanoTemper analysis software. Kd values were determined using “T-jump + Thermophoresis” settings. […]
smiles,measurement,setting,value
"O=C(c1ccc2nc(-c3ccccc3)[nH]c2c1)N1CCN(Cc2ccccc2F)CC1 [Bractoppin, (4-(2-fluorobenzyl)piperazin-1-yl) (2-phenyl-1H-benzo[d]imidazol-6-yl) methanone]",effect on damage-induced G2 arrest,HEK293 cells,inhibited in a dose-dependent manner
same,binding to fluorescently labeled ECT2 tBRCT domain,ECT2 BRCT,does not detectably bind
